pEC50, pKi: −log10 of the molar value.
Tests used:
GST-Bcl-2 = GST-Bcl-2 (Homo sapiens, UniProt P10415); assay: TR-FRET binding assay, GST-Bcl-2 with F-Bak peptide probe; settings: for pKi: TR-FRET Binding Affinity, GST-Bcl-2, F-Bak peptide probe
Outline: (§1)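 Competitive TR-FRET: GST-fusion protein, fluorescent Bak peptide probe and Tb-labelled anti-GST antibody incubated with compound dilution series (starting 50 μM as 2× stock, 10% DMSO) for 3 h at RT. Excitation 340/35 nm; Ki derived via Wang's exact competitive-binding equation.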

GST-Bcl-XL = GST-Bcl-XL (Homo sapiens, UniProt Q07817); assay: TR-FRET binding assay, GST-Bcl-XL with F-Bak peptide probe; settings: TR-FRET Binding Affinity, GST-Bcl-XL, F-Bak peptide probe
Chain of GST-Bcl-XL (Q07817 whole entry): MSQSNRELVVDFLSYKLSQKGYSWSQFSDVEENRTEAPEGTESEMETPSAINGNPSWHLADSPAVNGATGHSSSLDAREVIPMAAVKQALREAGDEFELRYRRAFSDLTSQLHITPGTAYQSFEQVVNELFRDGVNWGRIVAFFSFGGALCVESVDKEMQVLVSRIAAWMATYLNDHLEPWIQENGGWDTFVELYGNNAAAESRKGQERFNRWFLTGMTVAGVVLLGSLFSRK
Outline: as §1

FL5.12/Bcl-2 cells = assay: FL5.12/Bcl-2 cell viability assay under IL-3 withdrawal (CellTitre Glo); assay type: cell-based, murine; settings: Mus musculus, IL-3 withdrawn 48 hrs, then 24 hrs with compound
Outline: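 Viability measured with CellTiter-Glo after 24 h compound treatment at various concentrations, following 48 h IL-3 withdrawal (no WEHI-3B medium). Cells: prolymphocytic mouse FL5.12 line stably transfected to overexpress Bcl-2, cultured at 37 °C, 5% CO2.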

Chain of GST-Bcl-2 (P10415 whole entry, the tested form may be a part): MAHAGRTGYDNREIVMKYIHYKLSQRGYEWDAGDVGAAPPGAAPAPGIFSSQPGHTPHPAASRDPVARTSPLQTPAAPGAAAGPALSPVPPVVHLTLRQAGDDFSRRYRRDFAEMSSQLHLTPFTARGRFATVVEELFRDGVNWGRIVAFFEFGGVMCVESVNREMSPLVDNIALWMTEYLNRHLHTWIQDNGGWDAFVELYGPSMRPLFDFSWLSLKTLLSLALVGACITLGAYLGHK

| Compound | pKi (GST-Bcl-2) | pKi (GST-Bcl-XL) | pEC50 (FL5.12/Bcl-2 cells) | Binding selectivity ratio (Bcl-XL Ki/Bcl-2 Ki) (GST-Bcl-2; ratio of TR-FRET Ki values, Bcl-XL over Bcl-2) |
| --- | --- | --- | --- | --- |
| CC1(C)CCC(CN2CCN(c3ccc(C(=O)NS(=O)(=O)c4ccc(NCCN5CCNC5=O)c([N+](=O)[O-])c4)c(Oc4ccc5[nH]ccc5c4)c3)CC2)=C(c2ccc(Cl)cc2)C1 [Example 268, 4-(4-{[2-(4-chlorophenyl)-4,4-dimethylcyclohex-1-en-1-yl]methyl}piperazin-1-yl)-2-(1H-indol-5-yloxy)-N-[(3-nitro-4-{[2-(2-oxoimidazolidin-1-yl)ethyl]amino}phenyl)sulfonyl]benzamide] | 10.04 | 6.84 | 7.17 |  |
| CC1(C)CCC(CN2CCN(c3ccc(C(=O)NS(=O)(=O)c4ccc(NC5CCN(C6Cc7ccccc7C6)CC5)c([N+](=O)[O-])c4)c(Oc4cccc5[nH]ccc45)c3)CC2)=C(c2ccc(Cl)cc2)C1 [Example 227, 4-(4-{[2-(4-chlorophenyl)-4,4-dimethylcyclohex-1-en-1-yl]methyl}piperazin-1-yl)-N-[(4-{[1-(2,3-dihydro-1H-inden-2-yl)piperidin-4-yl]amino}-3-nitrophenyl)sulfonyl]-2-(1H-indol-4-yloxy)benzamide] | 8.17 | < 6.18 | < 6.30 |  |
| CC1(C)CCC(CN2CCN(c3ccc(C(=O)NS(=O)(=O)c4ccc(N[C@H]5CC[C@H](N6CCOCC6)CC5)c([N+](=O)[O-])c4)c(Oc4cccc5[nH]ncc45)c3)CC2)=C(c2ccc(Cl)cc2)C1 [Example 402, Trans-4-(4-{[2-(4-chlorophenyl)-4,4-dimethylcyclohex-1-en-1-yl]methyl}piperazin-1-yl)-2-(1H-indazol-4-yloxy)-N-({4-[(4-morpholin-4-ylcyclohexyl)amino]-3-nitrophenyl}sulfonyl)benzamide] | 10.52 | 8.38 | 7.87 | 137.4 |
| CCN(CC)C1CCC(Nc2ccc(S(=O)(=O)NC(=O)c3ccc(N4CCN(CC5=C(c6ccc(Cl)cc6)CC(C)(C)CC5)CC4)cc3Oc3ccc4[nH]ccc4c3)cc2[N+](=O)[O-])CC1 (stereo not shown) [Example 201, 4-(4-{[2-(4-chlorophenyl)-4,4-dimethylcyclohex-1-en-1-yl]methyl}piperazin-1-yl)-N-[(4-{[4-(diethylamino)cyclohexyl]amino}-3-nitrophenyl)sulfonyl]-2-(1H-indol-5-yloxy)benzamide] | 9.90 | 7.61 | 7.76 |  |
| CC1(C)CCC(CN2CCN(c3ccc(C(=O)NS(=O)(=O)c4ccc(OC[C@@H]5COCCO5)c([N+](=O)[O-])c4)c(Oc4ccc5[nH]ccc5c4)c3)CC2)=C(c2ccc(Cl)cc2)C1 [Example 347, 4-(4-{[2-(4-chlorophenyl)-4,4-dimethylcyclohex-1-en-1-yl]methyl}piperazin-1-yl)-N-({4-[(2S)-1,4-dioxan-2-ylmethoxy]-3-nitrophenyl}sulfonyl)-2-(1H-indol-5-yloxy)benzamide] | 9.61 | 6.51 | 7.33 |  |
| CC1(C)CCC(CN2CCN(c3ccc(C(=O)NS(=O)(=O)c4ccc(NCC5(N)CCOCC5)c([N+](=O)[O-])c4)c(Oc4cccc5[nH]ccc45)c3)CC2)=C(c2ccc(Cl)cc2)C1 [Example 176, N-[(4-{[(4-aminotetrahydro-2H-pyran-4-yl)methyl]amino}-3-nitrophenyl)sulfonyl]-4-(4-{[2-(4-chlorophenyl)-4,4-dimethylcyclohex-1-en-1-yl]methyl}piperazin-1-yl)-2-(1H-indol-4-yloxy)benzamide] | 9.74 | 7.49 | 7.23 |  |
| CC1(C)CCC(CN2CCN(c3ccc(C(=O)NS(=O)(=O)c4ccc(OC5CCN(C6CCOCC6)CC5)c([N+](=O)[O-])c4)c(Oc4ccc5[nH]ccc5c4)c3)CC2)=C(c2ccc(Cl)cc2)C1 [Example 389, 4-(4-{[2-(4-chlorophenyl)-4,4-dimethylcyclohex-1-en-1-yl]methyl}piperazin-1-yl)-2-(1H-indol-5-yloxy)-N-({3-nitro-4-[(1-tetrahydro-2H-pyran-4-ylpiperidin-4-yl)oxy]phenyl}sulfonyl)benzamide] | 10.01 | 7.17 | 7.55 |  |
| CN1CCC(Nc2ccc(S(=O)(=O)NC(=O)c3ccc(N4CCN(CC5=C(c6ccc(Cl)cc6)CCC(O)C5)CC4)cc3Oc3ccc4[nH]ccc4c3)cc2[N+](=O)[O-])CC1 (stereo not shown) [Example 224, 4-(4-{[2-(4-chlorophenyl)-5-hydroxycyclohex-1-en-1-yl]methyl}piperazin-1-yl)-2-(1H-indol-5-yloxy)-N-({4-[(1-methylpiperidin-4-yl)amino]-3-nitrophenyl}sulfonyl)benzamide] | > 11.00 | 9.00 | 7.67 |  |
| CC(C)(C)CCNc1ccc(S(=O)(=O)NC(=O)c2ccc(N3CCN(CC4=C(c5ccc(Cl)cc5)CC(C)(C)CC4)CC3)cc2Oc2ccc3[nH]ccc3c2)cc1[N+](=O)[O-] [Example 368, 4-(4-{[2-(4-chlorophenyl)-4,4-dimethylcyclohex-1-en-1-yl]methyl}piperazin-1-yl)-N-({4-[(3,3-dimethylbutyl)amino]-3-nitrophenyl}sulfonyl)-2-(1H-indol-5-yloxy)benzamide] | < 5.92 | < 6.18 | < 6.30 |  |
| CC(=O)N1CCC(Nc2ccc(S(=O)(=O)NC(=O)c3ccc(N4CCN(CC5=C(c6ccc(Cl)cc6)CC(C)(C)CC5)CC4)cc3Oc3cccc4[nH]ccc34)cc2[N+](=O)[O-])CC1 [Example 337, N-({4-[(1-acetylpiperidin-4-yl)amino]-3-nitrophenyl}sulfonyl)-4-(4-{[2-(4-chlorophenyl)-4,4-dimethylcyclohex-1-en-1-yl]methyl}piperazin-1-yl)-2-(1H-indol-4-yloxy)benzamide] | 9.27 | < 6.18 | 6.91 |  |
| CC1(C)CCC(CN2CCN(c3ccc(C(=O)NS(=O)(=O)c4ccc(NCCc5ccc(S(N)(=O)=O)cc5)c([N+](=O)[O-])c4)c(Oc4ccc5[nH]ccc5c4)c3)CC2)=C(c2ccc(Cl)cc2)C1 [Example 376, N-{[4-({2-[4-(aminosulfonyl)phenyl]ethyl}amino)-3-nitrophenyl]sulfonyl}-4-(4-{[2-(4-chlorophenyl)-4,4-dimethylcyclohex-1-en-1-yl]methyl}piperazin-1-yl)-2-(1H-indol-5-yloxy)benzamide] | 7.65 | < 6.18 | < 6.30 |  |
| CC1(C)CCC(CN2CCN(c3ccc(C(=O)NS(=O)(=O)c4ccc(NCC5CCOCC5)c(S(=O)(=O)C(F)(F)F)c4)c(Oc4cccc5[nH]ccc45)c3)CC2)=C(c2ccc(Cl)cc2)C1 [Example 303, 4-(4-{[2-(4-chlorophenyl)-4,4-dimethylcyclohex-1-en-1-yl]methyl}piperazin-1-yl)-2-(1H-indol-4-yloxy)-N-({4-[(tetrahydro-2H-pyran-4-ylmethyl)amino]-3-[(trifluoromethyl)sulfonyl]phenyl}sulfonyl)benzamide] | 8.83 | < 6.18 | < 6.30 |  |
| CN(C)CCCc1cccc(-c2ccc(Cl)cc2)c1CN1CCN(c2ccc(C(=O)NS(=O)(=O)c3ccc(NCC4CCOCC4)c([N+](=O)[O-])c3)c(Oc3cccc4[nH]ccc34)c2)CC1 [Example 196, 4-[4-({4′-chloro-3-[3-(dimethylamino)propyl]-1,1′-biphenyl-2-yl}methyl)piperazin-1-yl]-2-(1H-indol-4-yloxy)-N-({3-nitro-4-[(tetrahydro-2H-pyran-4-ylmethyl)amino]phenyl}sulfonyl)benzamide] | 10.49 | < 6.18 | 7.91 |  |
| CC1(C)CCC(CN2CCN(c3ccc(C(=O)NS(=O)(=O)c4ccc(NC5CCN(CCCO)CC5)c([N+](=O)[O-])c4)c(Oc4cccc5[nH]ccc45)c3)CC2)=C(c2ccc(Cl)cc2)C1 [Example 195, 4-(4-{[2-(4-chlorophenyl)-4,4-dimethylcyclohex-1-en-1-yl]methyl}piperazin-1-yl)-N-[(4-{[1-(3-hydroxypropyl)piperidin-4-yl]amino}-3-nitrophenyl)sulfonyl]-2-(1H-indol-4-yloxy)benzamide] | 10.41 | 8.17 | 7.95 |  |
| CC1(C)CCC(CN2CCN(c3ccc(C(=O)NS(=O)(=O)c4ccc(NCCC(F)(F)F)c([N+](=O)[O-])c4)c(Oc4ccc5[nH]ccc5c4)c3)CC2)=C(c2ccc(Cl)cc2)C1 [Example 324, 4-(4-{[2-(4-chlorophenyl)-4,4-dimethylcyclohex-1-en-1-yl]methyl}piperazin-1-yl)-2-(1H-indol-5-yloxy)-N-({3-nitro-4-[(3,3,3-trifluoropropyl)amino]phenyl}sulfonyl)benzamide] | 8.83 | < 6.18 | 6.87 |  |
| CC1(C)CCC(CN2CCN(c3ccc(C(=O)NS(=O)(=O)c4ccc(NCCN5CCOCC5)c(S(=O)(=O)C(F)(F)F)c4)c(Oc4ccc5[nH]ccc5c4)c3)CC2)=C(c2ccc(Cl)cc2)C1 [Example 351, 4-(4-{[2-(4-chlorophenyl)-4,4-dimethylcyclohex-1-en-1-yl]methyl}piperazin-1-yl)-2-(1H-indol-5-yloxy)-N-({4-[(2-morpholin-4-ylethyl)amino]-3-[(trifluoromethyl)sulfonyl]phenyl}sulfonyl)benzamide] | 8.80 | < 6.18 | 6.46 |  |
| O=C(NS(=O)(=O)c1ccc(NCC2CCOCC2)c([N+](=O)[O-])c1)c1ccc(N2CCN(CC3=C(c4ccc(Cl)cc4)CCC(N4CCCC4)C3)CC2)cc1Oc1ccc2[nH]ccc2c1 (stereo not shown) [Example 272, 4-(4-{[2-(4-chlorophenyl)-5-pyrrolidin-1-ylcyclohex-1-en-1-yl]methyl}piperazin-1-yl)-2-(1H-indol-5-yloxy)-N-({3-nitro-4-[(tetrahydro-2H-pyran-4-ylmethyl)amino]phenyl}sulfonyl)benzamide] | 10.96 | < 6.18 | 6.71 |  |
